# Reference: patent EP2181708A1, “Use of Valproate for reducing CHOP levels, particularly in a mammal having SCI” (Universitat Autonoma de Barcelona, priority 2008, dated 2010)
# How the values were obtained:
# CHOP = experiment: Tunicamycin-induced ER stress in HEK cell line, Western blot of CHOP; assay type: cell-based; details: 3 µg/ml tunicamycin, valproate
# Description: Primary fibroblasts obtained from rat sciatic nerve and HEK cell line were cultured in Dulbecco's modified Eagle's/F-12 medium supplemented with 10% fetal calf serum (Gibco). Fibroblasts were treated with 3 µg/mL of tunicamycin (Sigma) for 4 h and harvested in RIPA buffer for protein extraction.
# We have recently reported that SCI triggers an unbalanced UPR characterized by unchanged levels of BiP/Grp78 levels but progressive accumulation of the pro-apoptotic protein CHOP, with maximal CHOP levels found at 3 days post-injury in the weight-drop contusion model (Penas et al, 2007). In this study, we used a contusion model using an impactor device to specifically control the force (either 150 KDyn or 250 KDyn) to be apply on the T8 laminectomized spinal cord segment. We analyzed the spinal cord 8 mm-length segment that includes the lesion epicenter from sham-operated animals and from VPA treated or vehicle treated SCI animals at 3 days after operation. […] Thus, we increased the amount of VPA administered to 300 mg/kg every 12 h, as reported previously for a brain stroke rat model (Kim et al, 2007), and analyzed the effect using two different contusion forces of 150 and 250 KDyn. We observed that the levels of CHOP were directly proportional to the severity of the lesion; the more severe, the higher the level. […]
# ventral horn motoneurons = experiment: Ventral horn neuron and motoneuron analysis (cresyl violet, NeuN) after SCI; assay type: in vivo, Sprague-Dawley rats
# Description: (§1) Adult females Sprague-Dawley rats aged 11 weeks (220-250 g) were anesthetized with pentobarbital (40 mg/kg i.p.). When unresponsive, the vertebral column was exposed and a laminectomy carried out at T8-T9 levels. Rostral T7 and caudal T10 vertebral bodies were clamped with Adson stabilizing forceps, and carefully adjusted to level the spinal cord in the horizontal plane. A contusion injury was performed using the Infinite Horizon impactor device (Precision Scientific Instruments, Lexington, KY). The stainless steel impounder tip was placed at 3-4 mm above the exposed spinal cord, and then a fast impact produced applying forces of 150 or 250 kilodynes (KDyn) to the exposed spinal cord. The wound was sutured with 5-0 silk thread in the muscular plane and the skin was closed with small clips and disinfected with povidone iodine solution. Sham-operated animals received the same surgical procedure but sustained no impact injury; the spinal cord was left exposed for 5 min. The animals were maintained in a warm environment until full recovery, and received preventive antibiotic (amoxicyline) and analgesic (buprenorphine) treatment. All animals were kept under standard conditions of light and temperature and fed with food and water ad libitum. The procedures involving animals were approved by the Ethics Committee of our institution, and followed the European Communities Council Directive 86/609/EEC. […]
# Motoneurons were identified by their localization in the lateral ventral horn of spinal cord sections stained with cresyl violet and were counted following a method published elsewhere (Grossman et al, 2001) by size and morphological strict criteria. […] Only motoneurons with diameter larger than one square, i.e. ranging from 30 to 70 (m, and with a prominent nucleolus and being polygonal in shape were counted. The mean number of motoneurons per section was calculated. […]
# [1] = tested on: oligodendrocytes, astrocytes; experiment: Immunohistochemistry of glia (CC1/APC oligodendrocytes, GFAP astrocytes) after SCI; assay type: in vivo, Sprague-Dawley rats
# Description: as §1, with “libitum.” for “libitum. The procedures involving animals were approved by the Ethics Committee of our institution, and followed the European Communities Council Directive 86/609/EEC.”
smiles,measurement,setting,value
"CCCC(CCC)C(=O)O [VPA, 2-propylpentanoic acid]",CHOP accumulation promoted by tunicamycin,CHOP,can be attenuated
same,lesions in the sections distal to the epicenter,"ventral horn motoneurons; 35 days, vs saline",fewer lesions
same,length of spinal cord devoid of motoneurons,"ventral horn motoneurons; cresyl violet sections, especially caudal side, did not reach statistical significance",A reduction
same,number of NeuN neurons,"ventral horn motoneurons; ventral horn, distal to the epicenter",more abundant
same,total GFAP immunoreactivity in astrocytes,[1]; 35 dpo,no significant alterations
same,proportion of oligodendrocytes,"[1]; CC1 antibody, 1 and 2 mm caudal to the epicentre, vs vehicle",markedly increased
